Assay results from patent US20070043034A1, “Chlorine Ion Uptake Modulators and Uses Thereof” (priority 2005, published 2007).

Tests used:
[1] = test system: spontaneous network activity in hippocampal sections; assay: Spontaneous network activity in P4-8 hippocampal sections (whole-cell and extracellular field recordings); type: cell-based, rat
Experimental: In another exemplary in vitro method, simultaneous whole-cell voltage-clamp recordings of CA3 pyramidal cells and extracellular field potential recordings in CA3 pyramidal cell layer were performed to analyze the effects of one of the pharmaceutical compositions of the present invention, bumetanide, on spontaneous network activity in the postnatal (P)4-8 hippocampal sections. Spontaneous neuronal network activity is characterized by large polysynaptic currents mediated by activation of GABAA-receptors and synchronous recurrent population bursts, associated with a barrage of high frequency action potentials from multiple cells (FIG. 1C). […] Synchronous network activity reappeared 10-15 min after removal of bumetanide by washing.
In one exemplary method, experimental procedures were carried out on hippocampal slices of postnatal days 5 (P5) to P12 male Wistar rats. Animals were anaesthetized and decapitated and hippocampal slices were prepared by known methods. […]
From the example outlined above, extracellular field potentials were recorded and microelectrodes known in the art were used for simultaneous recordings of multiple unit activity (e.g. MUA; 500 Hz high-pass filter), population field activity in EEG band (1-100 Hz), and fast ripple oscillations (200-600 Hz).).

[2] = test system: hypoxia-induced seizures; assay: Hypoxia-induced seizures in P10 rats; type: in vivo, rat; conditions: hypoxia 15 min, i.p., Bumetanide 0.15 mg/kg 10 min prior, Phenobarbital 15 mg/kg 30 min prior, versus vehicle
Description: Litters of male Long-Evans hooded rats from Charles River Laboratories (Wilmington, Mass., USA) were used in this study. Each litter was divided into five treatment groups: no hypoxia control, hypoxia/DMSO in PBS, hypoxia/Bumetanide only, hypoxia/Phenobarbital only, and hypoxia/combination of Bumetanide and Phenobarbital. One to two litters were used for each run of the experiment, and each litter was housed together until the weaning age of P21.
Rats at P10 (˜18 to 22 grams) were exposed to global hypoxia for 15 minutes in an airtight chamber into which N2 gas was rapidly infused. The oxygen concentration was maintained at 7% for 8 minutes, 5% for 6 minutes, and 4% for 1 minute before termination of hypoxia, during which the animals were immediately removed from the chamber and exposed to room air. For each animal during hypoxia, a record of the total number of myoclonic seizures and the total number and length of time in seconds of tonic clonic seizures were kept. For analysis purposes, time lengths of each tonic clonic seizure for each animal were pooled to obtain total seizure time. […] The body temperature of all animals was maintained at 34-40° C. on a warming blanket; the temperatures of each animal were also recorded before and after submission to hypoxia. […]

## CCCCNc1cc(C(=O)O)cc(S(N)(=O)=O)c1Oc1ccccc1 [bumetanide, 3-(aminosulfonyl)-5-(butylamino)-4-phenoxybenzoic acid]
[1]; after bumetanide 10 uM
  time until synchronous network activity reappeared after removal by washing: 10 to 15 min
[1]; bath application 10 uM, P4-8 hippocampal sections, n=10
  synchronous bursts of action potentials: rapidly depressed
[2]
  average seizing time: did not significantly reduce
